# Patent publication US9096640B2, “17-hydroxy-17-pentafluoroethyl-estra-4,9(10)-diene-11-methylene oxyalkylene aryl derivatives, process for preparation thereof, and use thereof for treatment of diseases” (Bayer Intellectual Property, priority 2009, dated 2015)
# How the values were obtained:
# [1] = target: T1, human progesterone receptor A (Homo sapiens, UniProt P06401); test: Progesterone receptor transactivation test in stably transfected SK-N-MC cells (PR-A, MMTV-LUC reporter); format: cell-based; details: 24 hours, in presence of 0.1 nmol/l promegestone, luciferase reporter, read-out: PR-A IC50 (antagonistic potency)
# T1 construct: expressed in transfected cells; host or cells: SK-N-MC human neuroblastoma cells, stably transfected with pRChPR-A-neo and pMMTV-LUC
# T1 sequence (P06401 1-769 isoform P06401-2): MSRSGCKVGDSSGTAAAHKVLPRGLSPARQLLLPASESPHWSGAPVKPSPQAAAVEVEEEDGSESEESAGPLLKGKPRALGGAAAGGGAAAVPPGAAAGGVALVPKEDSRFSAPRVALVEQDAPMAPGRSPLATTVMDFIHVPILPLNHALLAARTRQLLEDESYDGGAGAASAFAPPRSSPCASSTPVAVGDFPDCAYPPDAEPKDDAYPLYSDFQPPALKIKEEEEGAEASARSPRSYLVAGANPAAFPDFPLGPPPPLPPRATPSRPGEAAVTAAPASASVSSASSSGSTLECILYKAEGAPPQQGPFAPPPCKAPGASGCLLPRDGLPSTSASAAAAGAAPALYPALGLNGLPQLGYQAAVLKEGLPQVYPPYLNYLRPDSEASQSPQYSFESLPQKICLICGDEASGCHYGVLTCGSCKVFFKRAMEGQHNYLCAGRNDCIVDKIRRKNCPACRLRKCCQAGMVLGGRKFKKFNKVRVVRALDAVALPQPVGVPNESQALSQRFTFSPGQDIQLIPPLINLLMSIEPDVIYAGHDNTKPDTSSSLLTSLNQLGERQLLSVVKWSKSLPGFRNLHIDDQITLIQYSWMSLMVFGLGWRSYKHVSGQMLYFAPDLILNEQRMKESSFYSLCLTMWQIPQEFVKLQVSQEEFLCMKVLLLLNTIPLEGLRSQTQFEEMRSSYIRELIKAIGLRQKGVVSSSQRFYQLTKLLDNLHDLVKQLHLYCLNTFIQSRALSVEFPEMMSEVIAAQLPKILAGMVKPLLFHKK
# Experimental: (§1) Progesterone Receptor-Antagonistic Action in Stable Transfectants of Human Neuroblastoma Cells (SK-N-MC Cells) with the Human Progesterone A or Progesterone B Receptor and an MN-LUC Reporter Construct
# (§2) SK-N-MC cells (human neuroblastoma cells) which have been stably transfected with plasmids expressing the human progesterone receptor B (pRChPR-B-neo) or the human progesterone receptor A (pRChPR-A-neo) and a reporter construct (pMMTV-LUC) were incubated for 24 hours either in the absence (negative control) or in the presence of ascending amounts of the particular test compound (0.01 nmol/l, 0.1 nmol/l, 1 nmol/l, 10 nmol/l, 100 nmol/l and […]), in order to determine the agonistic efficacy. As a positive control of the reporter gene induction, the cells were treated with the synthetic gestagen promegestone (0.01 nmol/l, 0.1 nmol/l, 1 nmol/l, 10 nmol/l, 100 nmol/l and […]). To determine the antagonistic activity, the cells were treated with 0.1 nmol/l promegestone and additionally with ascending amounts of the particular test compound (0.01 nmol/l, 0.1 nmol/l, 1 nmol/l, 10 nmol/l, 100 nmol/l and […]). The activity of the reporter gene LUC (LUC=luciferase) was determined in the cell lysates and measured as RLU (relative light units). All measurements are reported as % efficacy and as […] and […] concentrations.
# [2] = target: T2, human progesterone receptor B (Homo sapiens, UniProt P06401); test: Progesterone receptor transactivation test in stably transfected SK-N-MC cells (PR-B, MMTV-LUC reporter); format: cell-based; details: 24 hours, in presence of 0.1 nmol/l promegestone, luciferase reporter, read-out: PR-B IC50 (antagonistic potency)
# T2 construct: expressed in transfected cells; host or cells: SK-N-MC human neuroblastoma cells, stably transfected with pRChPR-B-neo and pMMTV-LUC
# T2 sequence (P06401 1-933): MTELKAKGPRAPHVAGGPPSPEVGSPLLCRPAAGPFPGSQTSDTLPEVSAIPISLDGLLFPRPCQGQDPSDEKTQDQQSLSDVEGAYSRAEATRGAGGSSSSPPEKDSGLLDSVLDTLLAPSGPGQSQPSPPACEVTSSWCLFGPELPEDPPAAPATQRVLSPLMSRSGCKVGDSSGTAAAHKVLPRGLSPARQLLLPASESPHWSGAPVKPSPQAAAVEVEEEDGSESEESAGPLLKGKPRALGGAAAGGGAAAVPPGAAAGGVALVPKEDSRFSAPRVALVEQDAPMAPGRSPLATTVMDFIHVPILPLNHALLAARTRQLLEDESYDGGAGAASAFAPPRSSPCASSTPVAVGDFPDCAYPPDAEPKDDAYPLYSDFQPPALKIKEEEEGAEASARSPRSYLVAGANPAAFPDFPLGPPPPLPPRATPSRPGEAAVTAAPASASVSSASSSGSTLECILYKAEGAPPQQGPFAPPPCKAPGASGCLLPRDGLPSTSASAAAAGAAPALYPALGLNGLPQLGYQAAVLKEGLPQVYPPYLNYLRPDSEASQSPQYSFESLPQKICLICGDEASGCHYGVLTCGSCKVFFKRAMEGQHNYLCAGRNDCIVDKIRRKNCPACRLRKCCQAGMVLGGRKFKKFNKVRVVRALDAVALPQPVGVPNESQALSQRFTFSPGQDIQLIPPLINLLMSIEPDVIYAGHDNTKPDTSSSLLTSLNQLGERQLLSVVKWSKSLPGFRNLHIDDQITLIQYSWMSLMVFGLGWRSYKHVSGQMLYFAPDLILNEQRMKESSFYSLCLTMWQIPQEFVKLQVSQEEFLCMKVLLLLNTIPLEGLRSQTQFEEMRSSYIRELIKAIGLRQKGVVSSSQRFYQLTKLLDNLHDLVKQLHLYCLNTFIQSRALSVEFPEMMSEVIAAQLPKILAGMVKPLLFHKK
# Experimental: as §1, §2
Compound,IC50 [1] [pM],IC50 [2] [pM]
"C[C@]12C[C@H](c3ccc(CCOCC(=O)O)cc3)C3=C4CCC(=O)C=C4CC[C@H]3[C@@H]1CC[C@@]2(O)C(F)(F)C(F)(F)F [Example 6, {2-[4-((8S,11R,13S,14S,17S)-17-hydroxy-13-methyl-3-oxo-17-pentafluoroethyl-2,3,6,7,8,11,12,13,14,15,16,17-dodecahydro-1H-cyclopenta[a]phenanthren-11-yl)-phenyl]ethoxy}acetic acid]",3000,12000
"Cc1nc2cc(COC(C)c3ccc(C4C[C@@]5(C)C(CC[C@@]5(O)C(F)(F)C(F)(F)F)C5CCC6=CC(=O)CCC6=C45)cc3)ccc2s1 (mixture of isomers) [Example 8, (8S,11R,13S,14S,17S)-17-hydroxy-13-methyl-11-{4-[(RS)-1-(2-methylbenzothiazol-5-ylmethoxy)ethyl]phenyl}-17-pentafluoroethyl-1,2,6,7,8,11,12,13,14,15,16,17-dodecahydro-cyclopenta[a]phenanthren-3-one]",60,100
"CC(OCC(=O)OC(C)(C)C)c1ccc([C@H]2C[C@@]3(C)C(CC[C@@]3(O)C(F)(F)C(F)(F)F)C3CCC4=CC(=O)CCC4=C32)cc1 (mixture of isomers) [Example 2, {(1RS)-1-[4-((8S,11R,13S,14S,17S)-17-hydroxy-13-methyl-3-oxo-17-pentafluoroethyl-2,3,6,7,8,11,12,13,14,15,16,17-dodecahydro-1H-cyclopenta[a]phenanthren-11-yl)phenyl]ethoxy}acetic acid tert-butyl ester]",100,120
"CC(OCC#N)c1ccc([C@H]2C[C@@]3(C)C(CC[C@@]3(O)C(F)(F)C(F)(F)F)C3CCC4=CC(=O)CCC4=C32)cc1 (mixture of isomers) [Example 5, {(RS)-1-[4-((8S,11R,13S,14S,17S)-17-hydroxy-13-methyl-3-oxo-17-pentafluoroethyl-2,3,6,7,8,11,12,13,14,15,16,17-dodecahydro-1H-cyclopenta[a]phenanthren-11-yl)phenyl]ethoxy}acetonitrile]",100,100
"CC(OCCO)c1ccc(C2C[C@@]3(C)C(CC[C@@]3(O)C(F)(F)C(F)(F)F)C3CCC4=CC(=O)CCC4=C23)cc1 (mixture of isomers) [Example 1A, (8S,11R,13S,14S,17S)-17-hydroxy-11-{4-[(1RS)-1-(2-hydroxyethoxy)ethyl]phenyl}-13-methyl-17-pentafluoroethyl-1,2,6,7,8,11,12,13,14,15,16,17-dodecahydro-cyclopenta[a]phenanthren-3-one]",120,360
"C[C@]12C[C@H](c3ccc(CCOCCO)cc3)C3=C4CCC(=O)C=C4CC[C@H]3[C@@H]1CC[C@@]2(O)C(F)(F)C(F)(F)F [Example 7, (8S,11R,13S,14S,17S)-17-hydroxy-11-{4-[2-(2-hydroxyethoxy)ethyl]phenyl}-13-methyl-17-pentafluoroethyl-1,2,6,7,8,11,12,13,14,15,16,17-dodecahydro-cyclopenta[a]phenanthren-3-one]",100,100
"COC(C)c1ccc(C2C[C@@]3(C)C(CC[C@@]3(O)C(F)(F)C(F)(F)F)C3CCC4=CC(=O)CCC4=C23)cc1 (mixture of isomers) [Example 1B, (8S,11R,13S,14S,17S)-17-hydroxy-11-[4-((1RS)-1-methoxyethyl)phenyl]-13-methyl-17-pentafluoroethyl-1,2,6,7,8,11,12,13,14,15,16,17-dodecahydrocyclopenta[a]phenanthren-3-one]",100,100
"CC(OCC(=O)O)c1ccc([C@H]2C[C@@]3(C)C(CC[C@@]3(O)C(F)(F)C(F)(F)F)C3CCC4=CC(=O)CCC4=C32)cc1 (mixture of isomers) [Example 3, {(RS)-1-[4-((8S,11R,13S,14S,17S)-17-hydroxy-13-methyl-3-oxo-17-pentafluoroethyl-2,3,6,7,8,11,12,13,14,15,16,17-dodecahydro-1H-cyclopenta[a]phenanthren-11-yl)phenyl]ethoxy}acetic acid]",13000,9800
"CC(C)(C)OC(=O)COCCc1ccc([C@H]2C[C@@]3(C)[C@@H](CC[C@@]3(O)C(F)(F)C(F)(F)F)[C@@H]3CCC4=CC(=O)CCC4=C32)cc1 [Example 4, {2-[4-((8S,11R,13S,14S,17S)-17-hydroxy-13-methyl-3-oxo-17-pentafluoroethyl-2,3,6,7,8,11,12,13,14,15,16,17-dodecahydro-1H-cyclopenta[a]phenanthren-11-yl)-phenyl]ethoxy}acetic acid tert-butyl ester]",100,100
